Reference: patent US20180296531A1, “STIMULATION OF 11B-HSD2 EXPRESSION TO IMPROVE HORMONAL THERAPY OF STEROID-DEPENDENT DISEASE” (THE CLEVELAND CLINIC FOUNDATION, priority 2015, published 2018)

Legend:
[1] = test system: LAPC4 cells; experiment: Cell viability assay (CellTiter-Glo); format: cell-based, human
Method: LAPC4 cells or the long-term Enz treated LAPC4 cells were plated in triplicate in 96 well plates coated with poly-DL-ornithine and incubated overnight, then treated with Enz and assayed in triplicate at the time points indicated using CellTiter-Glo (Promega). Viability is normalized to day 0.

[2] = test system: AR-regulated transcripts; experiment: qPCR of AR-regulated transcripts; format: cell-based, human; settings: LAPC4, 24 hours
Method: LAPC4 cells were treated with Enz for 36 days and then seeded into 12 well plates coated with poly-DL-ornithine at 50% confluence. After incubation overnight, the cells were transfected with 11β-HSD2-FLAG plasmid for 48 hours by using the TranslT®-2020 Transfection Reagent (Mirus) according to the protocol provided by the manufacturer, then maintained in phenol-red-free medium with 5% Charcoal:Dextran-stripped FBS for 48 hours before being treated with the indicated drugs. Total RNA was extracted with a GenElute Mammalian Total RNA miniprep kit (Sigma-Aldrich) and 1 μg RNA was reverse-transcribed to cDNA with the iScript cDNA Synthesis Kit (Bio-Rad). An ABI 7500 Real-Time PCR machine (Applied Biosystems) was used to perform the qPCR analysis, using iTaq Fast SYBR Green Supermix with ROX (Bio-Rad) in 96-well plates at a final reaction volume of 10 μl. The qPCR analysis was carried out in triplicate with suitable primers. Each mRNA transcript was quantitated by normalizing the sample values to RPLP0 and to vehicle treated cells (for steroid treated cells). All gene expression studies were repeated in independent experiments.

[3] = target: T1, 11β-HSD2 (Homo sapiens, UniProt P80365); experiment: Direct 11β-HSD2 antagonism: cortisol to cortisone conversion in LAPC4 cells transfected with 11β-HSD2 vector; format: cell-based; settings: LAPC4 transfected with 11β-HSD2 vector, [3H]-cortisol 100 nM
T1 construct: FLAG; expressed in transfected cells; host or cells: LAPC4
T1 sequence (P80365 1-405): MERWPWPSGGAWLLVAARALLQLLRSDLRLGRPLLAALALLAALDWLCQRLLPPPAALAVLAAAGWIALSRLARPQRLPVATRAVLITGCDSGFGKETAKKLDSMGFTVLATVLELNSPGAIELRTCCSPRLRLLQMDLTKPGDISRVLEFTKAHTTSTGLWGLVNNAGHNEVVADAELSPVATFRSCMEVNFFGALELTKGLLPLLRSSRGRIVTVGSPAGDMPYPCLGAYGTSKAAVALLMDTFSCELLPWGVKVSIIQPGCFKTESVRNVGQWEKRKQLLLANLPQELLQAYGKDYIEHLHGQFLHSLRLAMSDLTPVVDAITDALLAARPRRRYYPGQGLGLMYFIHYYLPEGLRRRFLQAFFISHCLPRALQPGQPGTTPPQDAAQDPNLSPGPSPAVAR
Method: Gene expression. The day before transfection, LAPC4 cells were plated into 12 well plates coated with poly-DL-ornithine (˜7×10^5 cells/well). On the day of transfections, an Erlin-2 expressing plasmid, Erlin-2-Myc-DDK-tagged (OriGene) or 11β-HSD2-expressing plasmid FCIV1-11β-HSD2-FLAG was introduced into the cells with Lipofectamine® 3000 Reagent (Life Technology). After 48 hours, the cells were collected and used for the detection of 11β-HSD2 and Erlin-2 by immunoblot, or treated with Enz for 24 hours to determine the effects on cortisol metabolism by HPLC as described herein.

[4] = test system: 11β-HSD2 protein; experiment: Human prostate cancer tissue studies, 11β-HSD2 protein; settings: tissues from patients with prostate cancer treated with enzalutamide (in patients or ex vivo 10 μM, 7-8 days)
Method: All deidentified human tissues were obtained using institutional review board (IRB)-approved protocols. Pre- and post-Enz lymph node tissues were obtained from CT-guided biopsy of metastatic CRPC from Cleveland Clinic (Patient #3) and Dana-Farber Cancer Institute (Patient #4). Pathologic identification of tumor was done by an expert prostate cancer pathologist. Staining of tissues from Patient #4 was done with frozen section slides that were air dried at room temperature for 5 minutes, followed by rehydration with PBS. Immunofluorescence staining was performed as described above. H&E staining was completed by the imagine core of Biomedical Engineering Department in Lerner Research Institute of Cleveland Clinic.
Paired pre-Enz treatment and post-Enz treatment tissues from Patient #1 and Patient #2 were obtained from patients with localized prostate cancer treated with Enz plus ADT for 2 months prior to the second biopsy in a clinical trial (NCT02064582) at the University of Texas Southwestern Medical Center. Biopsies were obtained using image-guidance with a Koelis Urostation. The biopsy cores were minced into pieces and then added into Soft tissue homogenizing CK14 tubes (Betin Technologies) with 100 μl 6M Urea buffer containing protease inhibitors (Sigma Aldrich). Tissue homogenization and immunoblot analysis were performed as described previously. […]

[5] = test system: tumor corticosterone; experiment: Mass spectrometry of corticosterone in xenograft tumors; format: in vivo, mouse
Method: Xenograft analysis. At least 24 mg tumor tissue (n=18) was homogenized with 1 ml LC-MS grade water (Fisher) by using homogenizer. The mixture was then centrifuged. 800 μl of the supernatant was transferred to a glass tube, followed by the addition of 80 μl of 10 ng/ml internal standard (corticosterone-d8) (Steraloids). The steroids and the internal standard were extracted with methyl tert butyl ether (Across) evaporated to dryness under N2 then reconstituted with 500 μl of 50% methanol.
The LC-MS/MS system contains an ultra-pressure liquid chromatography system (Shimadzu Corporation, Japan) which is consisted of two LC-30AD pumps, a DGU-20A5R degasser, a CTO-30A column oven, SIL-30AC autosampler, and a system controller CBM-20A and coupled with a Qtrap 5500 mass spectrometer (AB Sciex). Data acquisition and processing were performed using Analyst® software (version 1.6.2) from ABSciex.
Steroids were ionized using electrospray ionization in positive mode. Quantification of analytes was performed using multiple reaction monitoring. The mass transitions for corticosterone, 11-dehydrocorticosterone, and internal standard are 347.3/121.0, 345.3/121.0, and 355.3/125.0, respectively. Separation of steroids was achieved using a Zorbax Eclipse plus C18 column (Agilent) using mobile phase consisting of (A) 0.2% formic acid in water and (B) 0.2% formic acid in (methanol:acetonitrile, 60:40) with a gradient program at a flow rate of 0.2 ml/min. Sample injection volume was 10 μl.

[6] = enzalutamide-treated 11β-HSD2 tumors
[7] = enzalutamide-treated vector tumors

Compound: CNC(=O)c1ccc(N2C(=S)N(c3ccc(C#N)c(C(F)(F)F)c3)C(=O)C2(C)C)cc1F [enzalutamide]
- cell growth / viability ([1]; LAPC4, after sustained (long-term) enzalutamide treatment): Growth recovers
- cell viability ([1]; LAPC4 in vitro, short-term treatment): suppresses LAPC4 viability
- expression of AR-regulated genes [2]: suppression of AR-regulated genes
- direct 11β-HSD2 antagonism [3]: no direct 11β-HSD2 antagonism
- patient tissues with loss of 11β-HSD2 with treatment [4]: Nine of 11
- percentage of tumor corticosterone of corticosterone plus 11-dehydrocorticosterone [5, 6]: 33%
- tumor corticosterone concentration [5, 6]: 15.1 pmol/g
- percentage of tumor corticosterone of corticosterone plus 11-dehydrocorticosterone [5, 7]: 59%
- tumor corticosterone concentration [5, 7]: 44.5 pmol/g
